Test results as given in patent US9518061B2, “Substituted pyrazolylpyrazole derivative and use of same as herbicide” (KYOYU AGRI CO., LTD., priority 2013, dated 2016).

Columns and labels:
Format in all cases: in vivo
Amaranthus retroflexus [1] = experiment: Farming soil treatment test; conditions: soil surface spray prior to weed growth, 30 days
Experimental: (§1) 2. Farming Soil Treatment Test
(§2) Field soil was filled into a 1/6000 are pot followed by seeding with Digitaria ciliaris, Chenopodium album and Amaranthus retroflexus and covering with soil.
(§3) Wettable powder of compounds of formula (D shown in Table 1 prepared in compliance with the preparation examples were diluted with water to the prescribed amount of chemical and uniformly sprayed onto each soil surface layer using 10 liters of sprayed water per are prior to weed growth following seeding.
(§4) After treating for 30 days in a glass greenhouse at an average atmospheric temperature of 30° C., the herbicidal efficacy thereof was investigated.
(§5) Evaluation of herbicidal efficacy was carried out in the same manner as the above-mentioned Test Example 1.

Digitaria ciliaris [2] = experiment: Farming soil treatment test; conditions: soil surface spray prior to weed growth, 30 days
Experimental: as §1, §2, §3, §4, §5

Chenopodium album [3] = experiment: Farming soil treatment test; conditions: soil surface spray prior to weed growth, 30 days
Experimental: as §1, §2, §3, §4, §5

Scirpus juncoides = experiment: Paddy herbicidal activity test; conditions: irrigated paddy pot, 30 days
Experimental: (§6) 1. Paddy Herbicidal Activity Test
(§7) Rice paddy soil was filled into a 1/10000 are pot followed by the addition of suitable amounts of water and chemical fertilizer, kneading, seeding with Echinochloa crus-galli, Monochoria vaginalis and Scirpus juncoides and maintaining in an irrigated state at a water depth of 3 cm.
(§8) Wettable powder of Target Compound (I) shown in Table 1 prepared in compliance with the preparation examples were diluted with a suitable amount of water, rice plants in the 2.0 leaf stage were transplanted during 3.5 leaf stage of Echinochloa crus-galli, and treated by dropping in chemical in the prescribed amount per are using a pipette.
as §4
(§9) Evaluation of herbicidal efficacy was carried out by comparing growth inhibition rate (%) with an untreated group, while evaluation of phytotoxicity was carried out by comparing growth inhibition rate (%) with the state of a complete eradication group, and were evaluated at 11 levels indicated below.

Monochoria vaginalis = experiment: Paddy herbicidal activity test; conditions: irrigated paddy pot, 30 days
Experimental: as §6, §7, §8, §4, §9

Echinochloa crus-galli = experiment: Paddy herbicidal activity test; conditions: irrigated paddy pot, treated at 3.5 leaf stage of Echinochloa crus-galli, 30 days
Experimental: as §6, §7, §8, §4, §9

Rice plants = experiment: Paddy herbicidal activity test, phytotoxicity to transplanted rice; conditions: rice transplanted in 2.0 leaf stage, 30 days
Experimental: as §6, §7, §8, §4, §9

Amaranthus retroflexus [4] = experiment: Weed foliar treatment test; conditions: foliar spray, 3 weeks
Experimental: (§10) 3. Weed Foliar Treatment Test
(§11) Soil was filled into a 1/6000 are pot followed by seeding with Digitaria ciliaris, Chenopodium album and Amaranthus retroflexus, covering with soil, and cultivating in a glass greenhouse at an average atmospheric temperature of 25° C.
(§12) Wettable powder of Target Compound (I) shown in Table 1 prepared in compliance with the preparation examples were diluted with water to the prescribed amount of chemical and uniformly sprayed onto the weeds using 15 liters of sprayed water per are when Digitaria ciliaris had grown to the 1.0 to 2.0 leaf stage.
(§13) After treating for 3 weeks in a glass greenhouse at an average atmospheric temperature of 25° C., the herbicidal efficacy thereof was investigated.
as §5

Digitaria ciliaris [5] = experiment: Weed foliar treatment test; conditions: foliar spray at 1.0 to 2.0 leaf stage of Digitaria ciliaris, 3 weeks
Experimental: as §10, §11, §12, §13, §5

Chenopodium album [6] = experiment: Weed foliar treatment test; conditions: foliar spray, 3 weeks
Experimental: as §10, §11, §12, §13, §5

| SMILES | herbicidal efficacy (growth inhibition rate level) Amaranthus retroflexus (Amaranthus retroflexus [1]; 5g a.i./10a) | herbicidal efficacy (growth inhibition rate level) Amaranthus retroflexus (Amaranthus retroflexus [1]; 10g a.i./10a) | herbicidal efficacy (growth inhibition rate level) Digitaria ciliaris (Digitaria ciliaris [2]; 5g a.i./10a) | herbicidal efficacy (growth inhibition rate level) Digitaria ciliaris (Digitaria ciliaris [2]; 10g a.i./10a) | herbicidal efficacy (growth inhibition rate level) Chenopodium album (Chenopodium album [3]; 5g a.i./10a) | herbicidal efficacy (growth inhibition rate level) Chenopodium album (Chenopodium album [3]; 10g a.i./10a) | herbicidal efficacy (growth inhibition rate level) Scirpus juncoides (Scirpus juncoides; 1g a.i./10a) | herbicidal efficacy (growth inhibition rate level) Scirpus juncoides (Scirpus juncoides; 5g a.i./10a) | herbicidal efficacy (growth inhibition rate level) Monochoria vaginalis (Monochoria vaginalis; 1g a.i./10a) | herbicidal efficacy (growth inhibition rate level) Monochoria vaginalis (Monochoria vaginalis; 5g a.i./10a) | herbicidal efficacy (growth inhibition rate level) Echinochloa crus-galli (Echinochloa crus-galli; 1g a.i./10a) | herbicidal efficacy (growth inhibition rate level) Echinochloa crus-galli (Echinochloa crus-galli; 5g a.i./10a) | phytotoxicity (growth inhibition rate level) Rice plants (Rice plants; 1g a.i./10a) | phytotoxicity (growth inhibition rate level) Rice plants (Rice plants; 5g a.i./10a) | herbicidal efficacy (growth inhibition rate level) Amaranthus retroflexus (Amaranthus retroflexus [4]; 5g a.i./10a) | herbicidal efficacy (growth inhibition rate level) Amaranthus retroflexus (Amaranthus retroflexus [4]; 10g a.i./10a) | herbicidal efficacy (growth inhibition rate level) Digitaria ciliaris (Digitaria ciliaris [5]; 5g a.i./10a) | herbicidal efficacy (growth inhibition rate level) Digitaria ciliaris (Digitaria ciliaris [5]; 10g a.i./10a) | herbicidal efficacy (growth inhibition rate level) Chenopodium album (Chenopodium album [6]; 5g a.i./10a) | herbicidal efficacy (growth inhibition rate level) Chenopodium album (Chenopodium album [6]; 10g a.i./10a) |
| --- | --- | --- | --- | --- | --- | --- | --- | --- | --- | --- | --- | --- | --- | --- | --- | --- | --- | --- | --- | --- |
| COCCN(C(=O)C(F)(F)F)c1c([N+](=O)[O-])cnn1-c1nn2c(c1Cl)CCCC2 [Compound 20] | 10 (100%) | 10 (100%) | 10 (100%) | 10 (100%) | 10 (100%) | 10 (100%) | 9 (90% to less than 100%) | 10 (100%) | 9 (90% to less than 100%) | 9 (90% to less than 100%) | 9 (90% to less than 100%) | 10 (100%) | 1 (10% to less than 20%) | 1 (10% to less than 20%) | 10 (100%) | 10 (100%) | 10 (100%) | 10 (100%) | 10 (100%) | 10 (100%) |
| COCCNc1c(C#N)cnn1-c1nn2c(c1Cl)CCCC2 [Control agent 4.63] | 4 (40% to less than 50%) | 5 (50% to less than 60%) | 3 (30% to less than 40%) | 3 (30% to less than 40%) | 4 (40% to less than 50%) | 5 (50% to less than 60%) | 1 (10% to less than 20%) | 2 (20% to less than 30%) | 1 (10% to less than 20%) | 2 (20% to less than 30%) | 2 (20% to less than 30%) | 3 (30% to less than 40%) | 0 (0 (exponent): 0% to less than 10% (growth inhibition rate)) | 1 (10% to less than 20%) | 3 (30% to less than 40%) | 6 (60% to less than 70%) | 2 (20% to less than 30%) | 4 (40% to less than 50%) | 3 (30% to less than 40%) | 5 (50% to less than 60%) |
| N#Cc1cnn(-c2nn3c(c2Br)CCCC3)c1N(CCCl)C(=O)C(F)(F)F [Compound 16] | 10 (100%) | 10 (100%) | 10 (100%) | 10 (100%) | 10 (100%) | 10 (100%) | 8 (80% to less than 90%) | 9 (90% to less than 100%) | 7 (70% to less than 80%) | 8 (80% to less than 90%) | 9 (90% to less than 100%) | 10 (100%) | 0 (0 (exponent): 0% to less than 10% (growth inhibition rate)) | 1 (10% to less than 20%) | 10 (100%) | 10 (100%) | 10 (100%) | 10 (100%) | 10 (100%) | 10 (100%) |
| N#Cc1cnn(-c2nn3c(c2Cl)CCCC3)c1NC(=O)C(F)(F)F [Control agent 4.185] | 5 (50% to less than 60%) | 6 (60% to less than 70%) | 3 (30% to less than 40%) | 5 (50% to less than 60%) | 4 (40% to less than 50%) | 5 (50% to less than 60%) | 5 (50% to less than 60%) | 6 (60% to less than 70%) | 0 (0 (exponent): 0% to less than 10% (growth inhibition rate)) | 0 (0 (exponent): 0% to less than 10% (growth inhibition rate)) | 2 (20% to less than 30%) | 4 (40% to less than 50%) | 2 (20% to less than 30%) | 2 (20% to less than 30%) | 6 (60% to less than 70%) | 6 (60% to less than 70%) | 4 (40% to less than 50%) | 6 (60% to less than 70%) | 5 (50% to less than 60%) | 6 (60% to less than 70%) |
| N#Cc1cnn(-c2nn3c(c2Cl)CCCC3)c1N(CCC(F)(F)F)C(=O)C(F)(F)F [Compound 4] |  |  |  |  |  |  | 9 (90% to less than 100%) | 9 (90% to less than 100%) | 8 (80% to less than 90%) | 8 (80% to less than 90%) | 9 (90% to less than 100%) | 10 (100%) | 0 (0 (exponent): 0% to less than 10% (growth inhibition rate)) | 0 (0 (exponent): 0% to less than 10% (growth inhibition rate)) |  |  |  |  |  |  |
| N#Cc1cnn(-c2nn3c(c2Br)CCCC3)c1N(CCCCl)C(=O)C(F)(F)F [Compound 17] |  |  |  |  |  |  | 7 (70% to less than 80%) | 8 (80% to less than 90%) | 9 (90% to less than 100%) | 9 (90% to less than 100%) | 8 (80% to less than 90%) | 8 (80% to less than 90%) | 0 (0 (exponent): 0% to less than 10% (growth inhibition rate)) | 0 (0 (exponent): 0% to less than 10% (growth inhibition rate)) |  |  |  |  |  |  |
